Test systems include M14 melanoma; SF-268 CNS; OVCAR-4 ovarian; COLO 205 colon; MCF7 breast; K-562 leukemia; HCC-2998 colon; MALME-3M melanoma; UO-31 renal; ACHN renal.
Common to all, as to assay: growth of human tumour cells (NCI), 48 h

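Dose response: 5 concentrations. Exposure: 48 h. Format: 96-well plates. Endpoint: linear interpolation; highest concentration if not reached. At the GI50, growth is halved. TGI: concentration producing complete growth inhibition.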 A value given as a limit tells only on which side of the number the result lay.

`O=Cc1ccc(-c2ccc(-c3nc4ccccc4s3)cc2)s1`: the GI50 with M14 melanoma was 54.6 µM; with SF-268 CNS, 71.7 µM; in the experiment with OVCAR-4 ovarian, > 100 µM; in the experiment on COLO 205 colon it was > 100 µM; in the experiment with MCF7 breast it was 48.1 µM; in the experiment with K-562 leukemia, 37.1 µM. The GI50 was > 100 µM with HCC-2998 colon, 52.4 µM in the experiment with MALME-3M melanoma, 42.7 µM in the experiment with UO-31 renal and 43.5 µM in the experiment with ACHN renal. The TGI in the experiment with M14 melanoma, in the experiment on SF-268 CNS, in the experiment on OVCAR-4 ovarian, in the experiment with COLO 205 colon, in the experiment on MCF7 breast and with K-562 leukemia was > 100 µM in each case. The TGI with HCC-2998 colon, in the experiment with MALME-3M melanoma, in the experiment on UO-31 renal and with ACHN renal was > 100 µM in each case.
As to `CC1SC2(CCCCC2)N(NC(=O)c2[nH]c3ccc(Br)cc3c2-c2ccccc2)C1=O` (stereo not given), the GI50 in the experiment with M14 melanoma was 64 µM; in the experiment on SF-268 CNS, 75.6 µM; in the experiment with OVCAR-4 ovarian, 13.2 µM; in the experiment with COLO 205 colon it was > 100 µM; in the experiment on MCF7 breast, 20.5 µM; in the experiment on K-562 leukemia, 6.78 µM. The GI50 in the experiment with HCC-2998 colon was > 100 µM; in the experiment with MALME-3M melanoma it was 17.2 µM; in the experiment with UO-31 renal, 21.6 µM; in the experiment with ACHN renal, 61.3 µM. The TGI in the experiment on M14 melanoma was > 100 µM; with SF-268 CNS, > 100 µM; in the experiment on OVCAR-4 ovarian, 90.7 µM; with COLO 205 colon, > 100 µM; in the experiment on MCF7 breast, > 100 µM; in the experiment on K-562 leukemia, > 100 µM. In addition, the TGI in the experiment with HCC-2998 colon was > 100 µM; with MALME-3M melanoma it was 59.3 µM; with UO-31 renal, > 100 µM; in the experiment with ACHN renal, > 100 µM.
Turning to `C/C(=N\NC(=S)N1CCCCCC1)c1cccc2cccnc12`, the TGI in the experiment on M14 melanoma was 14 µM; in the experiment with SF-268 CNS, > 100 µM; with OVCAR-4 ovarian it was > 21.4 µM; in the experiment with COLO 205 colon, 12.3 µM; in the experiment with MCF7 breast it was > 100 µM; in the experiment on K-562 leukemia, > 100 µM. The TGI with HCC-2998 colon was > 100 µM; with MALME-3M melanoma it was > 61 µM; with UO-31 renal it was > 44.2 µM; in the experiment with ACHN renal, 11.6 µM.
Take `CC(=O)O[C@H]1CC[C@@]2(C)C(=C/C(=N/OCCN3CCCC3)[C@H]3[C@@H]4CC[C@H](OC(C)=O)[C@@]4(C)CC[C@@H]32)C1`: the GI50 in the experiment with M14 melanoma was 17.6 µM; in the experiment with SF-268 CNS, > 100 µM; in the experiment on OVCAR-4 ovarian, > 100 µM; in the experiment on COLO 205 colon it was 18.5 µM; with MCF7 breast, 53.4 µM; with K-562 leukemia, 27.3 µM. Moreover, the GI50 was 45 µM with HCC-2998 colon, 18 µM with MALME-3M melanoma, 20.8 µM with UO-31 renal and > 100 µM in the experiment with ACHN renal. The TGI in the experiment with M14 melanoma was 37.2 µM; in the experiment on SF-268 CNS, > 100 µM; in the experiment on OVCAR-4 ovarian it was > 100 µM; in the experiment with COLO 205 colon, 34.9 µM; with MCF7 breast, > 100 µM; in the experiment on K-562 leukemia, > 100 µM. Besides, the TGI in the experiment with HCC-2998 colon is > 100 µM; in the experiment on MALME-3M melanoma, 36.1 µM; in the experiment with UO-31 renal it was 53.3 µM; with ACHN renal, > 100 µM.
In the case of `Cn1cc(C2=C(Nc3ccccc3)C(=O)NC2=O)c2ccccc21`, the GI50 is > 25 µM with M14 melanoma; > 25 µM in the experiment on SF-268 CNS; > 21.8 µM in the experiment with OVCAR-4 ovarian; > 25 µM in the experiment with COLO 205 colon; > 25 µM in the experiment on MCF7 breast; > 25 µM in the experiment with K-562 leukemia. For the same compound, the GI50 is > 25 µM with HCC-2998 colon, > 25 µM with MALME-3M melanoma, > 19.5 µM with UO-31 renal and > 25 µM in the experiment with ACHN renal. Moreover, the TGI with M14 melanoma, with SF-268 CNS, in the experiment on OVCAR-4 ovarian, with COLO 205 colon, in the experiment on MCF7 breast and in the experiment on K-562 leukemia was > 25 µM each time. Also, the TGI in the experiment with HCC-2998 colon, in the experiment on MALME-3M melanoma, with UO-31 renal and in the experiment with ACHN renal was > 25 µM each time.
With `C[C@@H](CO)NC(=O)c1cc(-c2ccc(Cl)cc2)nn(-c2cnn(C)c2)c1=O`, the GI50 in the experiment with M14 melanoma is 31.1 µM; in the experiment on SF-268 CNS, 25.6 µM; in the experiment on OVCAR-4 ovarian, 45.9 µM; in the experiment on COLO 205 colon it was 24.7 µM; in the experiment with MCF7 breast, 25.7 µM; in the experiment on K-562 leukemia it was 26.3 µM. Also, the GI50 was 23.1 µM in the experiment on HCC-2998 colon, 17.8 µM with MALME-3M melanoma, 7.79 µM in the experiment with UO-31 renal and 15.4 µM in the experiment on ACHN renal. The TGI in the experiment on M14 melanoma is > 100 µM; in the experiment with SF-268 CNS it was > 100 µM; in the experiment with OVCAR-4 ovarian, > 100 µM; with COLO 205 colon it was 90.6 µM; in the experiment with MCF7 breast it was > 100 µM; in the experiment on K-562 leukemia it was 95 µM. Besides, the TGI with HCC-2998 colon is > 100 µM; with MALME-3M melanoma it was 45 µM; in the experiment on UO-31 renal, 57.4 µM; in the experiment on ACHN renal, 67.2 µM.
`Cc1cccc2c3c(sc12)C(c1ccc(F)cc1)C(C#N)=C(N)O3` (stereo not given): the GI50 was 0.0976 µM with M14 melanoma; 0.35 µM in the experiment on SF-268 CNS; 0.528 µM with OVCAR-4 ovarian; 0.28 µM in the experiment on COLO 205 colon; 0.0332 µM in the experiment with MCF7 breast; 0.0357 µM with K-562 leukemia. The GI50 with HCC-2998 colon is 0.311 µM; in the experiment on MALME-3M melanoma, 0.08 µM; in the experiment on UO-31 renal, 0.286 µM; in the experiment with ACHN renal, 0.0658 µM. The TGI in the experiment with M14 melanoma is 11.7 µM; in the experiment on SF-268 CNS it was 17.5 µM; in the experiment with OVCAR-4 ovarian, 17.1 µM; in the experiment on COLO 205 colon, 1.29 µM; in the experiment with MCF7 breast, 11.1 µM; in the experiment on K-562 leukemia, > 100 µM. Moreover, the TGI with HCC-2998 colon is 9.75 µM; with MALME-3M melanoma, 19 µM; in the experiment on UO-31 renal it was 15.5 µM; in the experiment on ACHN renal, 13.2 µM.
